Data taken from paper PMC8770514, “Induction of CTH expression in response to amino acid starvation confers resistance to anti-LAT1 therapy in MDA-MB-231 cells” (Scientific Reports, 2022).

Target: T1, L type amino acid transporter 1 (LAT1) (Homo sapiens, UniProt Q01650)
T1 construct: gene SLC7A5; with 4F2 heavy chain (4F2hc)
Assay: inhibition of […] L-leucine uptake ([…] min, […] °C) in MDA-MB-231 cells (endogenous LAT1); […] in T-47D cells
Type: cell-based

T1 sequence (Q01650 whole entry): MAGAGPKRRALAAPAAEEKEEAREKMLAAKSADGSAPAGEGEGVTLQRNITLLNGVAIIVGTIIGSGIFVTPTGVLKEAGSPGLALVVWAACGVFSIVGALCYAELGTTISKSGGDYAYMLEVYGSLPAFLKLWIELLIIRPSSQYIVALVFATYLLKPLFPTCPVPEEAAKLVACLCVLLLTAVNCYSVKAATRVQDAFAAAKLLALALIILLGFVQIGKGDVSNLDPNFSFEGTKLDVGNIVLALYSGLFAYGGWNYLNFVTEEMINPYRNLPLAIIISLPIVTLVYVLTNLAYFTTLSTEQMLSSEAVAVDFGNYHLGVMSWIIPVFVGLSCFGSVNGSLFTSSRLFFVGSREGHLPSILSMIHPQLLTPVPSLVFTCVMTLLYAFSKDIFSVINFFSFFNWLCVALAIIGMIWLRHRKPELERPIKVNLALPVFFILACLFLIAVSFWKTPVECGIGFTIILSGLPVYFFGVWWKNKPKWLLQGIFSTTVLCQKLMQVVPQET
T1 sequence (P08195 103-630 partner): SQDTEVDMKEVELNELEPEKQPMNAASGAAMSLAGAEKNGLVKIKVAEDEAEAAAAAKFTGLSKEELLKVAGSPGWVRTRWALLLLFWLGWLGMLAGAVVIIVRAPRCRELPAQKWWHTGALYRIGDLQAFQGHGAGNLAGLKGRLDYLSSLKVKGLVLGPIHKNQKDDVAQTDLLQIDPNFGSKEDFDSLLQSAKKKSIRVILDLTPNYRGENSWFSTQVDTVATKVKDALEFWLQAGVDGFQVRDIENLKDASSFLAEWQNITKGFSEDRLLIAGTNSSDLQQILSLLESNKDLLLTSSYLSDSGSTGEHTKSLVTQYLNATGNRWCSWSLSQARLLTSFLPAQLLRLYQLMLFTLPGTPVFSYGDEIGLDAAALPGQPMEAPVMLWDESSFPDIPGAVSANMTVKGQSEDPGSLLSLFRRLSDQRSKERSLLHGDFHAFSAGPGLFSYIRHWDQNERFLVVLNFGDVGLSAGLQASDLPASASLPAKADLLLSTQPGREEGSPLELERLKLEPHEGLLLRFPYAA

An IC50 of 60 ± 20 nM was found for `Nc1cc(COc2c(Cl)cc(C[C@H](N)C(=O)O)cc2Cl)c2oc(-c3ccccc3)nc2c1` [JPH203, (S)-2-amino-3-(4-((5-amino-2-phenylbenzo[d]oxazol-7-yl)methoxy)-3,5-dichlorophenyl)-propanoic acid] in this work.
